Marks after values point to notes of the source that are not given here.
Columns and labels:
[1] = Procedure: The animals were acclimatized and were randomly distributed into 6 groups, each group comprised of 6 rats. The rats in group G1 served as a normal control group and were administered the vehicle (normal saline) alone at the dose volume of 10 mL/kg, whereas the rats in groups G2 and G3 were administered metformin and anti-SGLT1 IgY antibody, respectively, at the doses of 200 mg/kg and 500 mg/kg body weight for single administration.
[2] = test system: Wistar rats; assay: Oral Glucose Tolerance Test (OGTT) model in Wistar rats, single dose; assay type: in vivo; details: for blood glucose level, mean / area under curve, mean: metformin 200 mg/kg, n = 6
Procedure: An animal study was conducted to assess the effect of administering the anti-SGLT1 IgY antibody in an Oral Glucose Tolerance Test (OGTT) model in Wistar rats. The OGTT test was performed to determine if an intervention has blocked the intestinal absorption of orally given glucose load, and then lowering of the increase in blood glucose levels is observed. […] The OGTT studies were conducted on overnight fasting animals.

[3] = target: T1, SGLT1 (Homo sapiens, UniProt P13866); assay: Inhibition of glucose uptake in human intestinal cell line CaCo2; assay type: cell-based; details: CaCo2 cells; 800 μg/ml; relative to uptake without intervention; FIG. 3
T1 construct: a human intestinal cell line CaCo2, which expresses SGLT1; endogenous in cells; host or cells: CaCo2
T1 sequence (P13866 1-664): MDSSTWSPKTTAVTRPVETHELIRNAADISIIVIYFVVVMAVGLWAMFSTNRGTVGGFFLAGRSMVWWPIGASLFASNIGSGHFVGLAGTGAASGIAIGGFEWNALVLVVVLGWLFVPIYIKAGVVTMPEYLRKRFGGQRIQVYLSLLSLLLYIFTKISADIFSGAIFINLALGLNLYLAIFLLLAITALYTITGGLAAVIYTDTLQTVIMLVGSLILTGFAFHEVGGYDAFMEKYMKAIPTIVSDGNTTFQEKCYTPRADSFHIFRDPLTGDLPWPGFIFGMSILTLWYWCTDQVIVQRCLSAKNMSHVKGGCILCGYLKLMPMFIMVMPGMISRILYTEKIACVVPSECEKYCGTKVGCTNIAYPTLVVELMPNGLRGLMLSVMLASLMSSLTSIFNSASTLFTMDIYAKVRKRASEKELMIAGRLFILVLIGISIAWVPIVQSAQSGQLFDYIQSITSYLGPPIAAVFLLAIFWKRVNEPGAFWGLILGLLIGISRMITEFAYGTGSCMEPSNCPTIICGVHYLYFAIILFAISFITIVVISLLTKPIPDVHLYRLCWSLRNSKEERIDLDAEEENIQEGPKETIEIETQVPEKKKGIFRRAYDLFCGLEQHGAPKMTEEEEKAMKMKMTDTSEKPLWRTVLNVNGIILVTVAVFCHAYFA
Procedure: The IgY antibodies were then tested for their ability to inhibit the uptake of glucose in a human intestinal cell line CaCo2, which expresses SGLT1. The data in FIG. 3 are shown as percent inhibition of glucose uptake relative to glucose uptake in the absence of any intervention. […] In the figure, ** is P<0.01 Student's t-tests were performed to compare between the glucose inhibition shown by controls, peptide, and different concentration of IgY antibodies.

[4] = 30, 60, 90 and 120 min after 2 g/kg oral glucose

| Molecule | Mortality ([1]; male rats, single dose, metformin 200 mg/kg, anti-SGLT1 IgY 500 mg/kg, deaths/animals observed) | Individual Animal Clinical Signs Observations ([1]; male, Wistar, rat, in vivo, 1 day) | Body Weights, mean ([1]; rat, in vivo) [g] | blood glucose level, mean ([2]; 0 minutes (before glucose 2 gm/kg), anti-SGLT1 IgY 500 mg/kg given 30 min before) [mg/dL] | area under curve, mean ([2]; 0 minutes, anti-SGLT1 IgY 500 mg/kg) [mg/dL] | area under curve compared to normal control group G1 [2, 4] | blood glucose level compared to normal control group G1 [2, 4] | blood glucose level, mean ([2]; 30 minutes after glucose 2 gm/kg, anti-SGLT1 IgY 500 mg/kg) | area under curve, mean ([2]; 30 minutes, anti-SGLT1 IgY 500 mg/kg) | blood glucose level, mean ([2]; 60 minutes after glucose 2 gm/kg, anti-SGLT1 IgY 500 mg/kg) | area under curve, mean ([2]; 60 minutes, anti-SGLT1 IgY 500 mg/kg) | blood glucose level, mean ([2]; 90 minutes after glucose 2 gm/kg, anti-SGLT1 IgY 500 mg/kg) | area under curve, mean ([2]; 90 minutes, anti-SGLT1 IgY 500 mg/kg) | blood glucose level, mean ([2]; 120 minutes after glucose 2 gm/kg, anti-SGLT1 IgY 500 mg/kg) | area under curve, mean ([2]; 120 minutes, anti-SGLT1 IgY 500 mg/kg) | blood glucose level, mean ([2]; 180 minutes after glucose 2 gm/kg, anti-SGLT1 IgY 500 mg/kg) | area under curve, mean ([2]; 180 minutes, anti-SGLT1 IgY 500 mg/kg) | percent inhibition of glucose uptake [3] |
| --- | --- | --- | --- | --- | --- | --- | --- | --- | --- | --- | --- | --- | --- | --- | --- | --- | --- | --- |
| CN(C)C(=N)N=C(N)N [Metformin, metformin] | 0/6 | 1 | 232.63 | 108.17 | 0.00 | Significantly decreased | Significantly decreased | 161.67** mg/dL | 8.99* mg/dL | 127.17* mg/dL | 9.63** mg/dL | 121.50* mg/dL | 8.29** mg/dL | 114.00** mg/dL | 7.85** mg/dL | 106.33** mg/dL | 3.67** mg/dL | – |
| QSGQLFDYIQSITSYLGPP [peptide used as antigen] | – | – | – | – | – | – | – | – | – | – | – | – | – | – | – | – | – | able to block the uptake of glucose |

— US12583921B2, “Targeted anti-SGLT1 avian IgY antibodies as treatment of pre-diabetes, type 2 diabetes and gestational diabetes” (Lay Sciences, Inc., priority 2022, dated 2026)
